In US9499550B2 (BRISTOL-MYERS SQUIBB COMPANY, priority 2012, dated 2016) one finds EC50 data, which are given here for 14 molecules.

Experiment [1] has as its system HCV genotype 1a (H77 strain) replicon in HUH-7 cells. In words: HCV replicon luciferase reporter assay, genotype 1a. The experiment is classed as cell-based. The note with it: Hepatitis C virus, Huh-7, 72 h, HCV genotype 1a replicon luciferase, 3 days incubation. Put shortly:
(§1)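 Replicon inhibition for both genotypes was measured as Renilla luciferase signal (EnduRen, 7.5 μM final, 2 h) after 3-day, 37° C exposure of replicon-bearing HUH-7 cells in 4% FCS DMEM, 0.5% DMSO. The 1b construct carries S1179I; the 1a H77 construct carries P1496L and S2204I. Twenty-point, 3-fold dilutions were fitted four-parametrically for EC50, and CC50 was taken from multiplexed Cell Titer-Blue.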
(In general: A replicon is a self-replicating genome or part of one, used to study replication in cells.)

The test system of experiment [2] is HCV genotype 1b (Con1) replicon in HUH-7 cells. In words: HCV replicon luciferase reporter assay, genotype 1b. The note with it: Hepatitis C virus, Huh-7, 72 h, HCV genotype 1b replicon luciferase, 3 days incubation. The experiment is classed as cell-based. Put shortly: as §1
Setting [3] is: GETYPE1A, read-out: LE_1a (EC50, range).
The mark [4] stands for this setting: GETYPE1B, read-out: LE_1b (EC50, range).

Molecules are shown by their SMILES. Where two headings read alike, the source gives them in different places.

A word on the EC50: it is the concentration that produces a half-maximal response.

Regarding `COc1cc2nc(C(F)(F)F)c(OC)nc2cc1O[C@@H]1C[C@H]2C(=O)N[C@]3(C(=O)NS(=O)(=O)C4(C)CC4)C[C@H]3/C=C\CC[C@H](C)C[C@@H](C)[C@H](NC(=O)OC(C)(C)C(F)(F)F)C(=O)N2C1` [Compound 4354], the concentration giving a half-maximal response (EC50) in experiment [1] (setting [3]) and in experiment [2] (setting [4]) was 35 to 620 nM each time.

Turning to `CC[C@@H]1C[C@H](C)CC/C=C\[C@@H]2C[C@@]2(C(=O)NS(=O)(=O)C2(C)CC2)NC(=O)[C@@H]2C[C@@H](Oc3ncc(OC)c4ccc(F)cc34)CN2C(=O)[C@H]1NC(=O)c1ccn(C)n1` [Compound 4356, (2R,6S,7R,9R,13aS,14aR,16aS,Z)-7-ethyl-2-((7-fluoro-4-methoxyisoquinolin-1-yl)oxy)-9-methyl-6-(1-methyl-1H-pyrazole-3-carboxamido)-N-((1-methylcyclopropyl)sulfonyl)-5,16-dioxo-1,2,3,5,6,7,8,9,10,11,13a,14,14a,15,16,16a-hexadecahydrocyclopropa[e]pyrrolo[1,2-a][1,4]diazacyclopentadecine-14a-carboxamide], the 50% effective concentration (EC50) in experiment [1] (read-out: LE_1a (EC50, range)) was in the range of 0.51 to 1 nM; in experiment [2] (read-out: LE_1b (EC50, range)), 0.1 to 0.5 nM.

As to `CC[C@@H]1C[C@H](C)CC/C=C\[C@@H]2C[C@@]2(C(=O)NS(=O)(=O)C2(C)CC2)NC(=O)[C@@H]2C[C@@H](Oc3ncc(OC)c4ccc(F)cc34)CN2C(=O)[C@H]1NC(=O)O[C@H](C)C(F)(F)F` [Compound 4357, (R)-1,1,1-trifluoropropan-2-yl ((2R,6S,7R,9R,13aS,14aR,16aS,Z)-7-ethyl-2-((7-fluoro-4-methoxyisoquinolin-1-yl)oxy)-9-methyl-14a-(((1-methylcyclopropyl)sulfonyl)carbamoyl)-5,16-dioxo-1,2,3,5,6,7,8,9,10,11,13a,14,14a,15,16,16a-hexadecahydrocyclopropa[e]pyrrolo[1,2-a][1,4]diazacyclopentadecin-6-yl)carbamate], the EC50 was in the range of 1.01 to 5 nM in experiment [1] (read-out: LE_1a (EC50, range)) and 0.51 to 1 nM in experiment [2] (read-out: LE_1b (EC50, range)).

With `CCOc1ccc2nc(O)c(O[C@@H]3C[C@H]4C(=O)N[C@]5(C(=O)NS(=O)(=O)C6(C)CC6)C[C@H]5/C=C\CC[C@@H](C)C[C@@H](CC)[C@H](NC(=O)OC(C)(C)C)C(=O)N4C3)nc2c1` [Compound 4361, tert-butyl ((2R,6S,7R,9R,13aS,14aR,16aS,Z)-2-((7-ethoxy-3-hydroxyquinoxalin-2-yl)oxy)-7-ethyl-9-methyl-14a-(((1-methylcyclopropyl)sulfonyl)carbamoyl)-5,16-dioxo-1,2,3,5,6,7,8,9,10,11,13a,14,14a,15,16,16a-hexadecahydrocyclopropa[e]pyrrolo[1,2-a][1,4]diazacyclopentadecin-6-yl)carbamate], the EC50 was 35 to 620 nM in experiment [1] (read-out: LE_1a (EC50, range)) and 5.01 to 35 nM in experiment [2] (read-out: LE_1b (EC50, range)).

As for `CC[C@@H]1C[C@H](C)CC/C=C\[C@@H]2C[C@@]2(C(=O)NS(=O)(=O)C2(C)CC2)NC(=O)[C@@H]2C[C@@H](Oc3nc4cc(OC(C)C)ccc4nc3C(F)(F)F)CN2C(=O)[C@H]1NC(=O)OC(C)(C)C` [Compound 4362, tert-butyl ((2R,6S,7R,9R,13aS,14aR,16aS,Z)-7-ethyl-2-((7-isopropoxy-3-(trifluoromethyl)quinoxalin-2-yl)oxy)-9-methyl-14a-(((1-methylcyclopropyl)sulfonyl)carbamoyl)-5,16-dioxo-1,2,3,5,6,7,8,9,10,11,13a,14,14a,15,16,16a-hexadecahydrocyclopropa[e]pyrrolo[1,2-a][1,4]diazacyclopentadecin-6-yl)carbamate], the EC50 in experiment [1] (read-out: LE_1a (EC50, range)) fell in the range of 1.01 to 5 nM; in experiment [2] (read-out: LE_1b (EC50, range)), 0.51 to 1 nM.

As for `CCOc1ccc2nc(C(F)(F)F)c(O[C@@H]3C[C@H]4C(=O)N[C@]5(C(=O)NS(=O)(=O)C6(C)CC6)C[C@H]5/C=C\CC[C@@H](C)C[C@@H](CC)[C@H](NC(=O)OC(C)(C)C)C(=O)N4C3)nc2c1` [Compound 4363, tert-butyl ((2R,6S,7R,9R,13aS,14aR,16aS,Z)-2-((7-ethoxy-3-(trifluoromethyl)quinoxalin-2-yl)oxy)-7-ethyl-9-methyl-14a-(((1-methylcyclopropyl)sulfonyl)carbamoyl)-5,16-dioxo-1,2,3,5,6,7,8,9,10,11,13a,14,14a,15,16,16a-hexadecahydrocyclopropa[e]pyrrolo[1,2-a][1,4]diazacyclopentadecin-6-yl)carbamate], the EC50 in experiment [1] (read-out: LE_1a (EC50, range)) lay in the range of 1.01 to 5 nM; in experiment [2] (read-out: LE_1b (EC50, range)), 0.1 to 0.5 nM.

As to `CC[C@@H]1C[C@H](C)CC/C=C\[C@@H]2C[C@@]2(C(=O)NS(=O)(=O)C2(C)CC2)NC(=O)[C@@H]2C[C@@H](Oc3cc4nc(OC)c(C(F)(F)F)nc4cc3OC)CN2C(=O)[C@H]1NC(=O)OC(C)(C)C` [Compound 4365, tert-butyl ((2R,6S,7R,9R,13aS,14aR,16aS,Z)-2-((3,7-dimethoxy-2-(trifluoromethyl)quinoxalin-6-yl)oxy)-7-ethyl-9-methyl-14a-(((1-methylcyclopropyl)sulfonyl)carbamoyl)-5,16-dioxo-1,2,3,5,6,7,8,9,10,11,13a,14,14a,15,16,16a-hexadecahydrocyclopropa[e]pyrrolo[1,2-a][1,4]diazacyclopentadecin-6-yl)carbamate], the EC50 in experiment [1] (read-out: LE_1a (EC50, range)) is 5.01 to 35 nM; in experiment [2] (read-out: LE_1b (EC50, range)) it was 5.01 to 35 nM.

Turning to `COc1ccc2nc(C)c(O[C@@H]3C[C@H]4C(=O)N[C@]5(C(=O)NS(=O)(=O)C6(C)CC6)C[C@H]5/C=C\CC[C@@H](C)C[C@@H](C)[C@H](NC(=O)OC(C)(C)C(F)(F)F)C(=O)N4C3)nc2c1` [Compound 4366], the EC50 is 0.58 nM in experiment [1] (GETYPE1A, read-out: LE_1a (EC50)); 0.51 to 1 nM in experiment [1] (setting [3]); 0.25 nM in experiment [2] (GETYPE1B, read-out: LE_1b (EC50)); 0.1 to 0.5 nM in experiment [2] (setting [4]).

For `COc1ccc2nc(OC)c(O[C@@H]3C[C@H]4C(=O)N[C@]5(C(=O)NS(=O)(=O)C6(C)CC6)C[C@H]5/C=C\CC[C@@H](C)C[C@@H](C)[C@H](NC(=O)OC(C)(C)C)C(=O)N4C3)cc2c1` [Compound 4373, tert-butyl ((2R,6S,7R,9R,13aS,14aR,16aS,Z)-2-((2,6-dimethoxyquinolin-3-yl)oxy)-7,9-dimethyl-14a-(((1-methylcyclopropyl)sulfonyl)carbamoyl)-5,16-dioxo-1,2,3,5,6,7,8,9,10,11,13a,14,14a,15,16,16a-hexadecahydrocyclopropa[e]pyrrolo[1,2-a][1,4]diazacyclopentadecin-6-yl)carbamate], the EC50 fell in the range of 0.1 to 0.5 nM in experiment [1] (read-out: LE_1a (EC50, range)) and 0.1 to 0.5 nM in experiment [2] (read-out: LE_1b (EC50, range)).

`COc1ccc2c(O[C@@H]3C[C@H]4C(=O)N[C@]5(C(=O)NS(=O)(=O)C6(C)CC6)C[C@H]5/C=C\CC[C@@H](C)C[C@@H](C)[C@H](NC(=O)OC(C)(C)C)C(=O)N4C3)ncc(F)c2c1` [Compound 4374, tert-butyl ((2R,6S,7R,9R,13aS,14aR,16aS,Z)-2-((4-fluoro-6-methoxyisoquinolin-1-yl)oxy)-7,9-dimethyl-14a-(((1-methylcyclopropyl)sulfonyl)carbamoyl)-5,16-dioxo-1,2,3,5,6,7,8,9,10,11,13a,14,14a,15,16,16a-hexadecahydrocyclopropa[e]pyrrolo[1,2-a][1,4]diazacyclopentadecin-6-yl)carbamate]: the EC50 in experiment [1] (read-out: LE_1a (EC50, range)) was 1.01 to 5 nM; in experiment [2] (read-out: LE_1b (EC50, range)), 0.1 to 0.5 nM.

`COc1ccc2c(Cl)ncc(O[C@@H]3C[C@H]4C(=O)N[C@]5(C(=O)NS(=O)(=O)C6(C)CC6)C[C@H]5/C=C\CC[C@@H](C)C[C@@H](C)[C@H](NC(=O)OC(C)(C)C)C(=O)N4C3)c2c1` [Compound 4375, tert-butyl ((2R,6S,7R,9R,13aS,14aR,16aS,Z)-2-((1-chloro-6-methoxyisoquinolin-4-yl)oxy)-7,9-dimethyl-14a-(((1-methylcyclopropyl)sulfonyl)carbamoyl)-5,16-dioxo-1,2,3,5,6,7,8,9,10,11,13a,14,14a,15,16,16a-hexadecahydrocyclopropa[e]pyrrolo[1,2-a][1,4]diazacyclopentadecin-6-yl)carbamate]: the EC50 in experiment [1] (read-out: LE_1a (EC50, range)) was in the range of 1.01 to 5 nM; in experiment [2] (read-out: LE_1b (EC50, range)) it was 0.51 to 1 nM.

Consider `COc1ccc2nc(OC)c(O[C@@H]3C[C@H]4C(=O)N[C@]5(C(=O)NS(=O)(=O)C6(CF)CC6)C[C@H]5/C=C\CC[C@@H](C)C[C@@H](C)[C@H](NC(=O)OC(C)(C)C)C(=O)N4C3)cc2c1` [Compound 4376, tert-butyl ((2R,6S,7R,9R,13aS,14aR,16aS,Z)-2-((2,6-dimethoxyquinolin-3-yl)oxy)-14a-(((1-(fluoromethyl)cyclopropyl)sulfonyl)carbamoyl)-7,9-dimethyl-5,16-dioxo-1,2,3,5,6,7,8,9,10,11,13a,14,14a,15,16,16a-hexadecahydrocyclopropa[e]pyrrolo[1,2-a][1,4]diazacyclopentadecin-6-yl)carbamate], for which the EC50 in experiment [1] (read-out: LE_1a (EC50, range)) is 1.01 to 5 nM; in experiment [2] (read-out: LE_1b (EC50, range)), 0.1 to 0.5 nM.

Take `CC[C@@H]1C[C@H](C)CC/C=C\[C@@H]2C[C@@]2(C(=O)NS(=O)(=O)C2(C)CC2)NC(=O)[C@@H]2C[C@@H](Oc3cc4cc(OC)ccc4nc3OC)CN2C(=O)[C@H]1NC(=O)OC(C)(C)C` [Compound 4377, tert-butyl ((2R,6S,7R,9R,13aS,14aR,16aS,Z)-2-((2,6-dimethoxyquinolin-3-yl)oxy)-7-ethyl-9-methyl-14a-(((1-methylcyclopropyl)sulfonyl)carbamoyl)-5,16-dioxo-1,2,3,5,6,7,8,9,10,11,13a,14,14a,15,16,16a-hexadecahydrocyclopropa[e]pyrrolo[1,2-a][1,4]diazacyclopentadecin-6-yl)carbamate]: the EC50 fell in the range of 0.51 to 1 nM in experiment [1] (read-out: LE_1a (EC50, range)) and 0.1 to 0.5 nM in experiment [2] (read-out: LE_1b (EC50, range)).

Take `COc1ccc2c(O[C@@H]3C[C@H]4C(=O)N[C@]5(C(=O)NS(=O)(=O)C6(CF)CC6)C[C@H]5/C=C\CC[C@@H](C)C[C@@H](C)[C@H](NC(=O)OC(C)(C)C(F)(F)F)C(=O)N4C3)ncc(F)c2c1` [Compound 4378]: the EC50 in experiment [1] (setting [3]) fell in the range of 1.01 to 5 nM; in experiment [2] (setting [4]), 0.51 to 1 nM.
